Data from US20170105969A1, “CENICRIVIROC FOR THE TREATMENT OF HIV-2 INFECTION” (Tobira Therapeutics, Inc., priority 2014, published 2017).
pEC50, pIC50: −log10 of the molar value. Counter-ions that a name gives are not always drawn. Like-named read-outs stand apart in the source and are kept apart here. Marks after values point to notes of the source that are not given here.

Assays:
CCR2 = target: T1, CCR2 (Homo sapiens, UniProt P41597); test: CCR2 receptor occupancy / internalization in PBMCs (monocytes) by flow cytometry; assay type: cell-based
T1 construct: endogenous in cells; host or cells: monocytes within PBMCs from 5 HIV+ and 5 HIV- subjects
T1 sequence (P41597 1-360 isoform P41597-2): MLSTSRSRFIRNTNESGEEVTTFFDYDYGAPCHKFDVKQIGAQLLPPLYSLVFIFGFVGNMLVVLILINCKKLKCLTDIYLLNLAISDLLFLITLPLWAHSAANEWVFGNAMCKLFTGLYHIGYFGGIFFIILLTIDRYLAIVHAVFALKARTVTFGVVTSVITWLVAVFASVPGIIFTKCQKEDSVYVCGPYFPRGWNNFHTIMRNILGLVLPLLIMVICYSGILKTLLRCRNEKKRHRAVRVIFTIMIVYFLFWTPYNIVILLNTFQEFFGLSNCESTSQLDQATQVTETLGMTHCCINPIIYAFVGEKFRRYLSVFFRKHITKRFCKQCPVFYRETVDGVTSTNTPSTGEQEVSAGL
Method: (§1) The capacity of each drug to inhibit CCR5 or CCR2 internalization was evaluated. Cell-surface expression of CCR5 and CCR2 was assessed by flow cytometry, and fluorescence values were converted into molecules of equivalent soluble fluorescence (MESF).

HIV = test: Ex vivo intracellular HIV DNA (qPCR) in PBMCs of Study 202 subjects; conditions: EFV 600 mg arm, Week 24
Method: (§2) Early (strong-stop) and late (full-length) reverse transcript levels were measured by qPCR. […] P24 and viral load levels were measured by ELISA and qRT-PCR after 4 hours.

HIV-1 [1] = test: Study 202: virologic response (plasma HIV-1 RNA <50 copies/mL), Snapshot algorithm, ITT; assay type: in vivo, human; conditions: for virologic non-response, subgroup with high baseline viral load (≧100,000 copies/mL): EFV
HIV-1 [2] = test: as above; assay type: in vivo, human; conditions: Week 24; EFV arm
Description: The primary efficacy endpoint was the percentage of subjects with plasma HIV-1 RNA <50 copies/mL at Week 24 (using the FDA Snapshot algorithm and the ITT population).

[3] = APRI and FIB-4 fibrosis scores, post-hoc analysis of Study 202; assay type: in vivo, human
Method: Change in score category from baseline (BL) to Weeks 24 and 48 was assessed in patients with non-missing data. Correlations between changes from BL in APRI and FIB-4 scores, and MCP-1 (CCR2 ligand) and sCD14 (inflammatory biomarker) levels were evaluated.

[4] = Solubility of cenicriviroc mesylate; assay type: physicochemical
CCR5 = CCR5 (Homo sapiens, UniProt P51681); test: CCR5 receptor occupancy / internalization in PBMCs by flow cytometry; assay type: cell-based
Chain of CCR5 (P51681 whole entry): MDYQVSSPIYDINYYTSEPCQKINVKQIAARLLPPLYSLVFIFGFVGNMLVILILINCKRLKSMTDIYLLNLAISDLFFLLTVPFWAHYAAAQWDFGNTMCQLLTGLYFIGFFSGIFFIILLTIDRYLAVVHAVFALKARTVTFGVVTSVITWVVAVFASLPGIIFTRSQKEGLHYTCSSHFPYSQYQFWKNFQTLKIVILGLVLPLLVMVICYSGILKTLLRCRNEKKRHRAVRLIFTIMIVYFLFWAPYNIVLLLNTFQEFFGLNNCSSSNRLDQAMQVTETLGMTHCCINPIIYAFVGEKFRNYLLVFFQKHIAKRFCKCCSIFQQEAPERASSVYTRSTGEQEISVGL
Method: as §1

CCR5-tropic HIV-1 BaL = test: PM-1 cells infected with HIV-1 BaL, supernatant P24 and viral load after 4 hours; assay type: cell-based; conditions: CVC 20 nM or MVC 50 nM
Method: as §2

HIV-1 [5] = conditions: HIV-1 (n = 43); Dorr et al. (2005); read-out: Median IC50; cited from earlier work
HIV-2 clinical isolates = test: HIV-2 phenotypic susceptibility, ANRS PBMC method; assay type: cell-based
Method: All patients were infected with HIV-2 group A. Tropism was determined phenotypically using Ghost(3) cell lines expressing CD4 receptor and one HIV coreceptor, CCR5 or CXCR4. Both Ghost(3) cell lines carries a humanized green fluorescent protein (GFP) gene, under the control of a HIV-2 LTR. […] Ghost(3) cells were provided by the NIH AIDS Reagent program.
Briefly, cell-free HIV-2 positive supernatant was serially diluted (1, 10^−1, and 10^−2) and incubated with PBMC for viral titration. Viruses were tested at a 100 TCID50 titration. Cells were pre-incubated with cenicriviroc or maraviroc at an appropriate concentration 1 hour before viral infection. Six serial dilutions of the antiretroviral drug were tested in quadruplicate. On day 4, viral replication was assessed by a specific viral load assay (Generic HIV-2 viral load, Biocentric, France).

HIV-1 [6] = test: HIV-1 susceptibility to maraviroc, observed results; assay type: cell-based; conditions: HIV-1 (n = 4)
[7] = HIV-2 isolate 10-046, group A, R5
[8] = HIV-2 isolate 10-051, group A, R5
[9] = HIV-2 isolate 10-055, group A, X4
[10] = HIV-2 isolate 10-056, group A, R5
[11] = HIV-2 isolate 10-069, group A, Dual
[12] = HIV-2 isolate 10-074, group A, R5
[13] = mixed R5/X4 HIV-2 clinical isolate, first of two
[14] = mixed R5/X4 HIV-2 clinical isolate, second of two

In the case of `CSc1ccc(C(=O)N[C@@H]2CCCC[C@@H]2NC(=O)CNC(=O)c2cc(C(F)(F)F)ccc2NC(=O)NC(C)C)cc1` [BMS-22, reference compound], the “average concentration required to reach >80% receptor occupancy” value (CCR2; CCR2, monocytes) was 18 nM and the “CCR2 cell-surface expression (in words)” value (CCR2; in the absence of MCP-1, monocytes) was “slightly increased CCR2 cell-surface expression”.
For `O=C1Nc2ccc(Cl)cc2[C@@](C#CC2CC2)(C(F)(F)F)O1` [EFV, efavirenz, reference compound], the “Strong-stop HIV DNA decline (marker of HIV entry)” value (HIV) was “no decline”, the “virologic non-response, subgroup with high baseline viral load (≧100,000 copies/mL)” value (HIV-1 [1]; Week 24) was 25% and the “virologic non-response, subgroup with high baseline viral load (≧100,000 copies/mL)” value (HIV-1 [1]; Week 48) was 25%. For the same compound, the “Discontinued study due to AE or death” value (HIV-1 [1]; Week 48, EFV arm) was “(21%)”, the “Discontinued study due to AE or death” value (HIV-1 [2]) was “(18%)” and the “HIV-1 RNA ≧50 but <400 copies/mL” value (HIV-1 [2]) was “(4%)^f”. For the same compound, the “patients in APRI category 0.5-1.5” value ([3]; Baseline) was 4%, the “patients in APRI category <0.5” value ([3]; Baseline) was 96% and the “patients in FIB-4 category <1.45” value ([3]; Baseline) was 100%. For the same compound, the “APRI: Decreased 1 category from baseline” value ([3]; Week 24) was 5%, the “patients in APRI category <0.5” value ([3]; Week 24) was 100% and the “patients in FIB-4 category <1.45” value ([3]; Week 24) was 100%. For the same compound, the “APRI: Decreased 1 category from baseline” value ([3]; Week 48) was 6%, the “patients in APRI category <0.5” value ([3]; Week 48) was 100% and the “patients in FIB-4 category 1.45-3.25” value ([3]; Week 48) was 6%. The “patients in FIB-4 category <1.45” value ([3]; Week 48) was 94%.
In the case of `CCCCOCCOc1ccc(-c2ccc3c(c2)C=C(C(=O)Nc2ccc([S@@+]([O-])Cc4cncn4CCC)cc2)CCCN3CC(C)C)cc1` [cenicriviroc mesylate, (S)-8-[4-(2-Butoxyethoxy)phenyl]-1-isobutyl-N-(4-{[(1-propyl-1H-imidazol-5-yl)methyl]sulfinyl}phenyl)-1,2,3,4-tetrahydro-1-benzazocine-5-carboxamide monomethanesulfonoate], the solubility ([4]; 99.5% ethanol) was “sparingly soluble”, the solubility ([4]; acetonitrile, 1-octanol, tetrahydrofuran) was “slightly soluble” and the solubility ([4]; aqueous solution at pH 3) was “sparingly soluble”. The solubility ([4]; aqueous solution from pH 1 to 2) was “freely soluble”, the solubility ([4]; aqueous solution from pH 4 to 13 and in water) was “practically insoluble” and the solubility ([4]; ethyl acetate and diethylether) was “practically insoluble”. The solubility ([4]; glacial acetic acid, methanol, benzyl alcohol, dimethylsulfoxide, N,N-dimethylformamide) was “freely soluble” and the solubility ([4]; pyridine and acetic anhydride) was “soluble”.
With maraviroc [MVC] the “CCR5 receptor occupancy at saturation” value (CCR5; CD4+ T cells) was about 86%, the “effective concentration at which saturation of CCR5 was reached” value (CCR5; CD4+ T cells) was 12.5 nM and the “CCR5 receptor occupancy at saturation” value (CCR5; CD8+ T cells) was about 87%. For the same compound, the “effective concentration at which saturation of CCR5 was reached” value (CCR5; CD8+ T cells) was 12.5 nM, the “cell-surface expression of CCR5 (in words)” value (CCR5; in the absence of RANTES, PBMCs) was “increased cell-surface expression of CCR5” and the “supernatant P24” value (CCR5-tropic HIV-1 BaL; 0 hrs (baseline)) was 506 ng/mL. The viral load (CCR5-tropic HIV-1 BaL; 0 hrs) was 1.19×10^10 copies/ml, the “supernatant P24” value (CCR5-tropic HIV-1 BaL; 4 hrs) was 520 ng/mL and the viral load (CCR5-tropic HIV-1 BaL; 4 hrs) was 1.67×10^10 copies/ml. For the same compound, the pIC50 (HIV-1 [5]) was 9.40, the “median MPI” value (HIV-2 clinical isolates; 13 R5 HIV-2 clinical isolates) was 93% and the “median MPI” value (HIV-2 clinical isolates; 13 R5 HIV-2 clinical isolates, listed as maraviroc) was 93%. The pEC50 (HIV-2 clinical isolates; [7]) was 8.95, the “MPI (%)” value (HIV-2 clinical isolates; [7]) was 93% and the pEC50 (HIV-2 clinical isolates; [8]) was 9.32. The “MPI (%)” value (HIV-2 clinical isolates; [8]) was 82%, the pEC50 (HIV-2 clinical isolates; [9]) was under 6.00 and the “MPI (%)” value (HIV-2 clinical isolates; [9]) was 0%. For the same compound, the pEC50 (HIV-2 clinical isolates; [10]) was 9.24, the “MPI (%)” value (HIV-2 clinical isolates; [10]) was 90% and the pEC50 (HIV-2 clinical isolates; [11]) was under 6.00. For the same compound, the “MPI (%)” value (HIV-2 clinical isolates; [11]) was 12%, the pEC50 (HIV-2 clinical isolates; [12]) was 9.17 and the “MPI (%)” value (HIV-2 clinical isolates; [12]) was 100%. For the same compound, the pEC50 (HIV-2 clinical isolates; X4 HIV-2 clinical isolate) was under 6.00, the MPI (HIV-2 clinical isolates; X4 HIV-2 clinical isolate) was 0% and the pEC50 (HIV-2 clinical isolates; [13]) was 8.03. For the same compound, the MPI (HIV-2 clinical isolates; [13]) was 55%, the pEC50 (HIV-2 clinical isolates; [14]) was under 6.00 and the MPI (HIV-2 clinical isolates; [14]) was 12%. For the same compound, the pIC50 (HIV-2 clinical isolates; read-out: Median IC50, HIV-2 (n = 13), Observed Results) was 9.10, the pEC50 (HIV-2 clinical isolates; read-out: median EC50, 13 R5 HIV-2 clinical isolates) was 9.10 and the “median MPI” value (HIV-1 [6]) was 74%. It also gave a pIC50 (HIV-1 [6]; read-out: Median IC50) of 8.62.
